{
  "source": "ChEMBL document CHEMBL1201862",
  "about": "“PubChem BioAssay data set” (2004)",
  "format_in_all_cases": "functional",
  "key": {"[1]": {"target": "Death-associated protein kinase 3 (Homo sapiens, UniProt O43293)", "sequence (O43293 whole entry)": "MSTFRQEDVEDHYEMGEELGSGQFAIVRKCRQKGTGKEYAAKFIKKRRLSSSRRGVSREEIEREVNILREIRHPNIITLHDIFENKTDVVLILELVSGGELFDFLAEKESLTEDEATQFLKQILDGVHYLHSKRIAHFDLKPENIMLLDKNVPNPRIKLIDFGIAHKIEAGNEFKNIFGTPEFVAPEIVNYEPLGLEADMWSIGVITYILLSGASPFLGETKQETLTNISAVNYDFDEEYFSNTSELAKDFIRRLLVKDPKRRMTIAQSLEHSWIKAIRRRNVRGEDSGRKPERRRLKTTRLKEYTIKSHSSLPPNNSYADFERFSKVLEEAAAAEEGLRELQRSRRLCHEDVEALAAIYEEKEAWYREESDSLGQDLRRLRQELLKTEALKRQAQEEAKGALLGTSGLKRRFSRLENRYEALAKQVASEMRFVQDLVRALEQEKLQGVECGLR"}, "LIM domain kinase 1": {"target": "LIM domain kinase 1 (Homo sapiens, UniProt P53667)", "sequence (P53667 whole entry, the tested form may be a part)": "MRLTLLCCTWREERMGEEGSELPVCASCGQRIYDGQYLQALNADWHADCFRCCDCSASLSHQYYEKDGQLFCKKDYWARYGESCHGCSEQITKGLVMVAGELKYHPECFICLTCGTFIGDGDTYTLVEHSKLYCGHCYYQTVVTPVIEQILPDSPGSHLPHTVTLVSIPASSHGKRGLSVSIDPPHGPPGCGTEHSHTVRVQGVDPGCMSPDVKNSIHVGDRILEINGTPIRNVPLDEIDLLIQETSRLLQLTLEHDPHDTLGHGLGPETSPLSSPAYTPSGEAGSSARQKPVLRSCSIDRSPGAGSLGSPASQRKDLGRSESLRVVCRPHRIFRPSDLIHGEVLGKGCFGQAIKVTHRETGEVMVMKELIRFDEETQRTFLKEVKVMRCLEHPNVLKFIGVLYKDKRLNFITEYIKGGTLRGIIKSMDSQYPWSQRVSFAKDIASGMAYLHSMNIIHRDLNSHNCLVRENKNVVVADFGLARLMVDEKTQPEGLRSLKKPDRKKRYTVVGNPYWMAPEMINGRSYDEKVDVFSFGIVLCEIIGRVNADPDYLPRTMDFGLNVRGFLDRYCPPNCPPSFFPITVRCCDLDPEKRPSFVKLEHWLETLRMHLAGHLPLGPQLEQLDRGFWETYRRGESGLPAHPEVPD", "assay": "Navigating the Kinome. Panel member name: LIMK1"}, "[2]": {"target": "Serine/threonine-protein kinase Chk1 (Homo sapiens, UniProt O14757)", "sequence (O14757 whole entry)": "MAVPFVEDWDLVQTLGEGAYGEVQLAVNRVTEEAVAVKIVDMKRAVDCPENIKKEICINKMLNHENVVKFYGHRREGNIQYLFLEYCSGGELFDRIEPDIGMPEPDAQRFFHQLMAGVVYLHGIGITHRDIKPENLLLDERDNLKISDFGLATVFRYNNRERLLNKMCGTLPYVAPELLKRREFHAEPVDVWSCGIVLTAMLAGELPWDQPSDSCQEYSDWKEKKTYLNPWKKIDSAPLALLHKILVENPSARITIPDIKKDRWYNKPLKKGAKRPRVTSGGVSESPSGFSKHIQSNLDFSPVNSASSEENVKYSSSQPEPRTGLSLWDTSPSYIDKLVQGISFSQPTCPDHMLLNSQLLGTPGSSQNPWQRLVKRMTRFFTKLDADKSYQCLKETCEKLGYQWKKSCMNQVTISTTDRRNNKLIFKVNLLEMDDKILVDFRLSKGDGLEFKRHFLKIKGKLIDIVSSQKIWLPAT"}, "[3]": {"target": "G protein-coupled receptor kinase 5 (Homo sapiens, UniProt P34947)", "sequence (P34947 whole entry)": "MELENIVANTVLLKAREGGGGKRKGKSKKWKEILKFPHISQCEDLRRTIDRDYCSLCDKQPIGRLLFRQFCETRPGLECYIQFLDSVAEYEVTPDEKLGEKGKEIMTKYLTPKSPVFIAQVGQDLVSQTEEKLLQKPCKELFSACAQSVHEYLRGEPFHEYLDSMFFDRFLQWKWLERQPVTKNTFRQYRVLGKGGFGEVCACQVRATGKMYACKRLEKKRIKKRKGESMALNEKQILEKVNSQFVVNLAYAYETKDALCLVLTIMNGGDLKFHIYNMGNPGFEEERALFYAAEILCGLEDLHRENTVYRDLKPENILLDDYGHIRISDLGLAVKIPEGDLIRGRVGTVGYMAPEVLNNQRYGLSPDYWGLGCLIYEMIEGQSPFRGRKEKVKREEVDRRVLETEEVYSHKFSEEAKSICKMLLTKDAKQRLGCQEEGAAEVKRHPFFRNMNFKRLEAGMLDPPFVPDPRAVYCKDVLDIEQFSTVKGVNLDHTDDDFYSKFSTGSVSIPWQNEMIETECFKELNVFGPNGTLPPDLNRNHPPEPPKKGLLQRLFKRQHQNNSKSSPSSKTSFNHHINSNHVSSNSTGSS", "assay": "Navigating the Kinome. Panel member name: GPRK5"}, "[4]": {"target": "Sphingosine 1-phosphate receptor 2 (Homo sapiens, UniProt O95136)", "sequence (O95136 whole entry)": "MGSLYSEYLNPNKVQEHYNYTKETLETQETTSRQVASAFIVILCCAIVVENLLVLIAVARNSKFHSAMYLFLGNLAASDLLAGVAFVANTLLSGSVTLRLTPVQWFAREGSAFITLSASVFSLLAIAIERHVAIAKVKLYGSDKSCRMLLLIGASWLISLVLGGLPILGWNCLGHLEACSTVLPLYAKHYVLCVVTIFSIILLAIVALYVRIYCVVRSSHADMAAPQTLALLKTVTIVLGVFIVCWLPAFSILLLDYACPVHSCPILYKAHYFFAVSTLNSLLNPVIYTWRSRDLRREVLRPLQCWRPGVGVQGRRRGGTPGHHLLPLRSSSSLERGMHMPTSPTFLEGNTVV", "assay": "Late-stage fluorescence-based dose-response cell-based counterscreen assay to identify agonists of the Sphingosine 1-Phosphate Receptor 3 (S1P3): Sphingosine 1-Phosphate Receptor 2 (S1P2) agonist assay."}, "[5]": {"target": "T1, Sphingosine 1-phosphate receptor 4 (Homo sapiens, UniProt O95977)", "T1 sequence (O95977 whole entry)": "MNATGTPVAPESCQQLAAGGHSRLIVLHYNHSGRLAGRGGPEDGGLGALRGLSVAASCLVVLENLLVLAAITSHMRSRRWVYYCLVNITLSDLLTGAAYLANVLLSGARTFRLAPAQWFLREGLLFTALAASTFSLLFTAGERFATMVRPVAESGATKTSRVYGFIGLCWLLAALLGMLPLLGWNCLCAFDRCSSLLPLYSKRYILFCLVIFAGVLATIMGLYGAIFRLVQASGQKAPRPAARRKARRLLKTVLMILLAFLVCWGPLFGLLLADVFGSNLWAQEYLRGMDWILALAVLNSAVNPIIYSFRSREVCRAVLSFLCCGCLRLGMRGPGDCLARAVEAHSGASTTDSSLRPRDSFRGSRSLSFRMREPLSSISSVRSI", "assay": "Late-stage fluorescence-based dose-response cell-based counterscreen assay to identify agonists of the Sphingosine 1-Phosphate Receptor 3 (S1P3): Sphingosine 1-Phosphate Receptor 4 (S1P4) agonist assay."}, "[6]": {"target": "T2, Sentrin-specific protease 7 (Homo sapiens, UniProt Q9BQF6)", "T2 sequence (Q9BQF6 whole entry)": "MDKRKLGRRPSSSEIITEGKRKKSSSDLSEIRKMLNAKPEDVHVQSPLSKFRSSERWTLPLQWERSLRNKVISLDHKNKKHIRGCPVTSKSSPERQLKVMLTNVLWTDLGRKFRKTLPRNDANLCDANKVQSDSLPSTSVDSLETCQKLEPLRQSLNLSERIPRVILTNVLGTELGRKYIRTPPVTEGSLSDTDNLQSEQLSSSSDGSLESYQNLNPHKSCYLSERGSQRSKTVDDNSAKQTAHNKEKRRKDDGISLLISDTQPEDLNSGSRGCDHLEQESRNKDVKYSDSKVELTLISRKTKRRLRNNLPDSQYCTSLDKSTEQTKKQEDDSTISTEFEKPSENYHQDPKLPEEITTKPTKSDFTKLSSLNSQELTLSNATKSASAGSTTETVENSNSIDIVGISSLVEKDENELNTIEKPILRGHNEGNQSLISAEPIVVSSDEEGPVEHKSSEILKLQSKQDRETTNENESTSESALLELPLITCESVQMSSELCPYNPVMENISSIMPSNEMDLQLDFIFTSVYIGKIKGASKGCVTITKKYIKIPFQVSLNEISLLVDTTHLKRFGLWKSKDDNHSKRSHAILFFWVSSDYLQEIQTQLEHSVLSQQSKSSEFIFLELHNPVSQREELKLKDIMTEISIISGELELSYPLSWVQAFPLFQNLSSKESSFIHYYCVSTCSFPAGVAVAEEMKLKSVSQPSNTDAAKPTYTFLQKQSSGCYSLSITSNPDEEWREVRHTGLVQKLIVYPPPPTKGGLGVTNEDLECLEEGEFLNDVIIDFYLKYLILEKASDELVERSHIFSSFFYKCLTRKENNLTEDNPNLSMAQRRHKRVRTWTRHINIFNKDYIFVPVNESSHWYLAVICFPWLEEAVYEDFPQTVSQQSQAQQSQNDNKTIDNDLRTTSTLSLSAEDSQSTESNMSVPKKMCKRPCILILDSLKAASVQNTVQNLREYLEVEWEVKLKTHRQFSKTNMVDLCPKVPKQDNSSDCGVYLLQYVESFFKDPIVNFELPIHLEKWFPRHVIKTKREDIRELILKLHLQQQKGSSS", "assay": "SENP7 protease inhibitors, SAR follow-up, biochemical, luminescence, set 2 (AID 588600)"}, "Caspase-3": {"target": "T3, Caspase-3 (Homo sapiens, UniProt P42574)", "T3 sequence (P42574 whole entry)": "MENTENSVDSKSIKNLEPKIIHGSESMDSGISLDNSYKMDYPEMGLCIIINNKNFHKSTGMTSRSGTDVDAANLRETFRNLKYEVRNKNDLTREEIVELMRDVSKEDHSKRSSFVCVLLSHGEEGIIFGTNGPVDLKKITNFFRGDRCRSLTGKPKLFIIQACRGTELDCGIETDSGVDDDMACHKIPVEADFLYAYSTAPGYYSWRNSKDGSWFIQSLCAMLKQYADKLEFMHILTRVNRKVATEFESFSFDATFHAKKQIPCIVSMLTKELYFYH", "assay": "caspase-3 inhibitors as off-family protease, SAR follow-up, selectivity assay for SENP protease inhibitor project, biochemical, luminescence, set 2 (AID 588599)"}, "[7]": {"target": "T4, Sentrin-specific protease 6 (Homo sapiens, UniProt Q9GZR1)", "T4 sequence (Q9GZR1 whole entry)": "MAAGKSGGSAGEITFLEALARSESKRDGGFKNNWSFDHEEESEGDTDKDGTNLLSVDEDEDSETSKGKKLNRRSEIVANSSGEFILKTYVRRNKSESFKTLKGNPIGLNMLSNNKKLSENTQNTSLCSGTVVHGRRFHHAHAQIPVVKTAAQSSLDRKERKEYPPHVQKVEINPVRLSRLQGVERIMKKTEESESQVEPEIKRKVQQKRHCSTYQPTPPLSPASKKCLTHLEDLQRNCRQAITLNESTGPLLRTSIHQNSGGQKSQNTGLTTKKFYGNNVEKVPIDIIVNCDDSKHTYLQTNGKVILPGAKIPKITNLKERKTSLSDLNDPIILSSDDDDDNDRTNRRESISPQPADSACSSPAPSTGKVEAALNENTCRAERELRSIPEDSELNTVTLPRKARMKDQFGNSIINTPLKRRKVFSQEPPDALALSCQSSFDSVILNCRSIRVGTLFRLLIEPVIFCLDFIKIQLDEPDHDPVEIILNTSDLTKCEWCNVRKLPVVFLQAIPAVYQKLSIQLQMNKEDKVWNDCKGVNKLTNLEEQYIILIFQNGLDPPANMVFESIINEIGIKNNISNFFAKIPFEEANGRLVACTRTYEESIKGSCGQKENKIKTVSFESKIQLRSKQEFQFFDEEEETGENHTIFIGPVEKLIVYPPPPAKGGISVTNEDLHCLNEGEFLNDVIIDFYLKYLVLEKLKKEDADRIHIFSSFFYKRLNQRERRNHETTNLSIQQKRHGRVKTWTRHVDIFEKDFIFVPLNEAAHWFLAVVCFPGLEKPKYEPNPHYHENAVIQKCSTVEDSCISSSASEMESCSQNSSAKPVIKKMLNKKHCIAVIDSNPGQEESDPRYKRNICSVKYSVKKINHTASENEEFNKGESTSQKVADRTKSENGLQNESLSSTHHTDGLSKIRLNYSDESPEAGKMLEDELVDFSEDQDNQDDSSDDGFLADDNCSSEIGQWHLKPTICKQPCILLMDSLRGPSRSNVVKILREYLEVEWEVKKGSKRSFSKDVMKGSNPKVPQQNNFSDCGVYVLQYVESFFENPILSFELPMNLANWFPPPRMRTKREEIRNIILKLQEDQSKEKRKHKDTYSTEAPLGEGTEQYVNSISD", "assay": "SENP6 protease inhibitors, SAR follow-up, biochemical, luminescence, set 2 (AID 588598)"}, "[8]": {"target": "T5, Sentrin-specific protease 8 (Homo sapiens, UniProt Q96LD8)", "T5 sequence (Q96LD8 whole entry)": "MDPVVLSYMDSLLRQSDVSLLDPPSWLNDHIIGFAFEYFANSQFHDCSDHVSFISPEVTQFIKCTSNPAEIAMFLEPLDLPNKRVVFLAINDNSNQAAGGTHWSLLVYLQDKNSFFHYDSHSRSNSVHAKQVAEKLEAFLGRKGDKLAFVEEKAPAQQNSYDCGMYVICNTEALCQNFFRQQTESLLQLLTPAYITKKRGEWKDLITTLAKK", "assay": "SENP8 protease inhibitors, SAR follow-up, biochemical, luminescence, set 2 (AID 588601)"}, "Prothrombin": {"target": "Prothrombin (Bos taurus, UniProt P00735)", "assay": "thrombin inhibition, dose response, biochemical, fluorescence polarization, uHTS hits (AID 602369)"}, "[9]": {"target": "26S proteasome non-ATPase regulatory subunit 14 (Homo sapiens, UniProt O00487)", "sequence (O00487 whole entry)": "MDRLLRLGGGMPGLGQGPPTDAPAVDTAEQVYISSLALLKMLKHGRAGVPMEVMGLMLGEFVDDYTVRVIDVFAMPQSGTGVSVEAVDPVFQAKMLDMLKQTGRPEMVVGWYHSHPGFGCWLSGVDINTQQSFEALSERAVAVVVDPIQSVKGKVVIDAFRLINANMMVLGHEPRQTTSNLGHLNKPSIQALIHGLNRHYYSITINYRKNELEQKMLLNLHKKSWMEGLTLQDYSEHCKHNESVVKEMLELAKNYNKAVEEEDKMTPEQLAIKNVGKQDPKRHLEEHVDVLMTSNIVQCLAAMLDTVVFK", "assay": "inhibition of proteasome subunit RPN11 – biochemical, fluorescence polarization, uHTS hits, confirmation (AID 602368)"}, "[10]": {"target": "72 kDa type IV collagenase (Homo sapiens, UniProt P08253)", "sequence (P08253 whole entry)": "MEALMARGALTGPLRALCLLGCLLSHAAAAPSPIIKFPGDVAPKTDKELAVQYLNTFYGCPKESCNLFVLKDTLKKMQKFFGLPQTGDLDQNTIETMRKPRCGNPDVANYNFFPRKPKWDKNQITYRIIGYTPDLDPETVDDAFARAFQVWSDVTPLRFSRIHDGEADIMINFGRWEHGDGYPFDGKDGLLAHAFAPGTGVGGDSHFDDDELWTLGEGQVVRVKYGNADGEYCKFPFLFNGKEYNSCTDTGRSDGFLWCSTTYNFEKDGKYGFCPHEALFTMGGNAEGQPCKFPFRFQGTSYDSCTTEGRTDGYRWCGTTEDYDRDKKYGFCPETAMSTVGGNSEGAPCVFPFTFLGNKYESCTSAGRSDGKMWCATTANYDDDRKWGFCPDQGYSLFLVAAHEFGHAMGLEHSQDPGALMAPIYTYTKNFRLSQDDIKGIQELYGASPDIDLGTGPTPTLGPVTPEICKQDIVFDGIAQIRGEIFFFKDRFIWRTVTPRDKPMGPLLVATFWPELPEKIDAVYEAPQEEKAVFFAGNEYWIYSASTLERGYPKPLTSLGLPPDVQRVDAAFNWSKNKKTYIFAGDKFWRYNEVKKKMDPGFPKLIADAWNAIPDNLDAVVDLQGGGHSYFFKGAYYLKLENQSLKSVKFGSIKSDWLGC", "assay": "Dose Response validation of uHTS RPN11 inhibitor hits using a MMP-2 Fluorescence assay."}},
  "note": "Activity calls are given as the source filed them.",
  "data": [
    {"compound": "Cc1nn(C)c(C)c2cc([N+](=O)[O-])cc1-2", "values": [
      {"measurement": "Ki", "setting": "[1]", "result": "3.98 µM (active)"},
      {"measurement": "Ki", "setting": "LIM domain kinase 1", "result": "2 µM (active)"},
      {"measurement": "Ki", "setting": "[2]", "result": "1.58 µM (active)"},
      {"measurement": "Ki", "setting": "[3]", "result": "3.98 µM (active)"}
    ]},
    {"compound": "O=C(c1cc(-c2ccccc2)on1)N(C1CCCCC1)C1CCCCC1", "values": [
      {"measurement": "EC50", "setting": "[4]", "result": "> 50 µM (inactive)"},
      {"measurement": "EC50", "setting": "[5]", "result": "> 50 µM (inactive)"}
    ]},
    {"compound": "Cc1[nH]c2ccccc2c1/C=N/NC(=O)Cc1nnc(N)s1", "values": [
      {"measurement": "IC50", "setting": "[6]", "result": "> 99 µM (inactive)"},
      {"measurement": "IC50", "setting": "Caspase-3", "result": "> 99 µM (inactive)"},
      {"measurement": "IC50", "setting": "[7]", "result": "> 99 µM (inactive)"},
      {"measurement": "IC50", "setting": "[8]", "result": "> 99 µM (inactive)"}
    ]},
    {"compound": "O=C(N/N=C/c1ccncc1)c1cccc(NC(=O)c2ccc(Cl)cc2)c1", "values": [
      {"measurement": "IC50", "setting": "Prothrombin", "result": "> 100 µM (inactive)"},
      {"measurement": "IC50", "setting": "[9]", "result": "30.4 µM (active)"},
      {"measurement": "IC50", "setting": "[10]", "result": "> 100 µM (inactive)"}
    ]}
  ]
}
